# B1: M-CSF solution: Macrophage colony stimulating factor in solution (protein, UniProt P09603 33-554, looked up)
# Macrophage colony-stimulating …: EEVSEYCSHMIGSGHLQSLQRLIDSQMETSCQITFEFVDQEQLKDPVCYLKKAFLLVQDIMEDTMRFRDNTPNAIAIVQLQELSLRLKSCFTKDYEEHDKACVRTFYETPLQLLEKVKNVFNETKNLLDKDWNIFSKNCNNSFAECSSQDVVTKPDCNCLYPKAIPSSDPASVSPHQPLAPSMAPVAGLTWEDSEGTEGSSLLPGEQPLHTVDPGSAKQRPPRSTCQSFEPPETPVVKDSTIGGSPQPRPSVGAFNPGMEDILDSAMGTNWVPEEASGEASEIPVPQGTELSPSRPGGGSMQTEPARPSNFLSASSPLPASAKGQQPADVTGTALPRVGPVRPTGQDWNHTPQKTDHPSALLRDPPEPGSPRISSLRPQGLSNPSTLSAQPQLSRSHSSGSVLPLGELEGRRSTRDRRSPAEPEGGPASEGAARPLPRFNSVPLTDTGHERQSEGSFSPQLQESVFHLLVPSVILVLLAVGGLLFYRWRRRSHQEPQRADSPLEQPEGSPLTQDDRQVELPV
# What was measured:
# [1] = tested on: B-16 cells (malignant melanoma); experiment: Malignant melanoma in mice: survival; format: in vivo
# Protocol: In vivo studies were carried out to assess the effect of the above combination therapy, both in the solution form and in the microencapsulated form in the treatment of cancer, in order to examine any possible advantages of the microencapsulated form of the drugs. The cytokine levels (eg. TNFa and IL1β were also evaluated after treatment.
# Male C57BL/6 mice weighing approximately 18-20 g were anesthetized with light ether vapor and were injected subcutaneously with B-16 cells (1×10^6 cells). Their weights, tumor size and survival rate (in days) were measured daily. The tumor size was followed by measuring the long axis of the tumor daily. The study began once the tumor size reached 0.5 cm in diameter. The animals were divided into control and treatment groups. The control groups received phosphate buffered saline, blank PLGA microspheres or blank albumin microspheres. The treated groups received the following dosing schedule: Methotrexate solution (2 mg/kg or 15 mg/kg) administered s.c. daily or every three days. The M-CSF solution (10 microgram/kg or 100 microgram/kg) administered i.p. daily. The MTX microspheres (2 mg/kg or 15 mg/kg) and/or the M-CSF microspheres (10 microgram/kg or 100 microgram/kg) administered s.c. and i.p. respectively, alone or in combination therapy.
# [2] = tested on: OKT3 induced TNFa release; experiment: Inhibition of OKT3 induced cytokine release in blood: TNFa; format: cell-based; details: human blood, OKT3 1 μg/mL, 37° C., 24 hr; Grp 2 OKT3+Blank MC, Grp 3 TNFa NA 1 μg/mL+IL1β NA 2 μg/mL+OKT3
# Source text: (§1) OKT3 is a murine monoclonal antibody to the CD3 antigen of human T cells and is used to treat transplant rejection. The high incidence of adverse reactions associated with OKT3 is thought to be related to the induction of cytokines. The purpose of this study was to determine if microencapsulated (MC) neutralizing antibodies (NA) to human TNFa and IL1β which are readily phagocytized by macrophages can inhibit the release of TNFa, IL1β, and IL6 following OKT3 challenge in vitro.
# (§2) Microcapsules were prepared using the method from Example 1 using an albumin matrix. Blood was collected from 10 healthy subjects and separated into aliquots for the following groups. • Grp 1) Blank MC • Grp 2) OKT3 1 μg/mL+Blank MC • Grp 3) TNFa NA 1 μg/mL+IL1β NA 2 μg/mL+OKT3 1 μg/mL. Aliquots were incubated at 37° C. for 24 hr. Blood was assayed for TNFa, […], and IL6 at 0, 2, 6, 24 hr by ELISA. C) Results
# [3] = tested on: OKT3 induced IL6 release; experiment: Inhibition of OKT3 induced cytokine release in blood: IL6; format: cell-based; details: human blood, OKT3 1 μg/mL, 37° C., 24 hr
# Source text: as §1, §2
molecule,measurement,setting,value
"CN(Cc1cnc2nc(N)nc(N)c2n1)c1ccc(C(=O)N[C@@H](CCC(=O)O)C(=O)O)cc1 [MTX solution, methotrexate]",mean survival,[1]; 2 mg/kg s.c. every 3 days,12.8 days
same,mean survival time,[1]; 15 mg/kg s.c. every 3 days,14.2 days
OKT3: murine monoclonal antibody to the CD3 antigen of human T cells,Peak TNFa,[2],655 ± 71 pg/mL
same,Peak IL6,[3],664 ± 60 pg/mL
B1,mean survival time,[1]; 10 microgram/kg i.p. daily,"14,2 days"

# Source: patent US7105158B1, “Methods of administering microencapsulated materials for immune modulated diseases” (priority 1992, dated 2006)
